Results on twelve compounds are retold here after ChEMBL document CHEMBL4152281, “Synthesis, characterization and biological evaluation of tertiary sulfonamide derivatives of pyridyl-indole based heteroaryl chalcone as potential carbonic anhydrase IX inhibitors and anticancer agents” (Eur J Med Chem, 2018).

One assay concerns HepG2. Nature of the assay: Antiproliferative activity against human HepG2 cells after 48 hrs by MTT assay. In kind it is functional, cell-based. The conditions noted are these: HepG2, 48 h. On the technique in general: Tetrazolium dyes change colour on reduction, which living cells bring about.
A further assay has as its system HEK293. Nature of the assay: Antiproliferative activity against HEK293 cells after 48 hrs by MTT assay. In kind it is cell-based. The conditions noted are these: Homo sapiens, HEK293, 48 h.
Assay [1] deals with MCF7. Nature of the assay: Antiproliferative activity against human MCF7 cells after 48 hrs by MTT assay. In kind it is functional, cell-based.
Another assay addresses Carbonic anhydrase 9 (Homo sapiens, UniProt Q16790). Nature of the assay: Inhibition of human carbonic anhydrase 9 expressed in Escherichia coli BL21 D3 strain using p-nitrophenyl acetate as substrate by UV/visible spectrophotometry.
The subject of assay [2] is MCF7. Nature of the assay: Induction of apoptosis in human MCF7 cells assessed as early apoptotic cells at IC50 after 24 to 48 hrs by Annexin V-FITC/7-AAD dual staining based flow cytometry (reference value: 2.74%). The assay is classed as functional. A general note: A flow cytometer gives signals particle by particle.
Assay [3] has as its system MCF7. In words: Induction of apoptosis in human MCF7 cells assessed as necrotic cells at IC50 after 24 to 48 hrs by Annexin V-FITC/7-AAD dual staining based flow cytometry (reference value: 0.20%). In kind it is functional.
Assay [4] concerns MCF7. Nature of the assay: Induction of apoptosis in human MCF7 cells assessed as late apoptotic cells at IC50 after 24 to 48 hrs by Annexin V-FITC/7-AAD dual staining based flow cytometry (reference value: 1.14%). In kind it is functional.
For assay [5], the system named is MCF7. In words: Induction of apoptosis in human MCF7 cells assessed as viable cells at IC50 after 24 to 48 hrs by Annexin V-FITC/7-AAD dual staining based flow cytometry (reference value: 95.8%). The assay is classed as functional.
The next assay has as its target Carbonic anhydrase 2 (Homo sapiens, UniProt P00918). Nature of the assay: Inhibition of human carbonic anhydrase 2 expressed in Escherichia coli BL21 D3 strain using p-nitrophenyl acetate as substrate by UV/visible spectrophotometry.
The mark [6] stands for this setting: Homo sapiens, MCF7, 48 h, read-out: IC50.

Where only a bound is given, the exact number is not on record here.

Regarding `O=C(/C=C/c1c[nH]c2ccccc12)c1ccncc1`, the IC50 in the assay with HepG2 is 49.3 µM; in the assay with HEK293 it was more than 150 µM; in the assay with MCF7 [1] (setting [6]) it was 45.3 µM.

Regarding `Cc1ccc(S(=O)(=O)n2cc(/C=C/C(=O)c3ccncc3)c3ccccc32)cc1`, the IC50 in the assay with HepG2 is 44.8 µM; with HEK293, more than 150 µM; in the assay with MCF7 [1] (setting [6]), 48.9 µM; on Carbonic anhydrase 9, 29.9 µM.

Take `O=C(/C=C/c1cn(S(=O)(=O)c2ccc(Cl)cc2Cl)c2ccccc12)c1ccncc1`: the Activity came out at 78.8% in the assay on MCF7 [2], 0.53% in the assay on MCF7 [3], 10% with MCF7 [4] and 10.6% in the assay on MCF7 [5]. The IC50 in the assay with HepG2 is 14.8 µM; in the assay with HEK293, more than 150 µM; with MCF7 [1] (setting [6]), 12.2 µM; in the assay with MCF7 [1] (mcf7) it was “Dose-dependent effect”; on Carbonic anhydrase 9, 0.13 µM.

Take `CCCS(=O)(=O)n1cc(/C=C/C(=O)c2ccncc2)c2ccccc21`: the IC50 was 46.2 µM with HepG2; more than 150 µM in the assay on HEK293; 52.4 µM with MCF7 [1] (setting [6]); more than 100 µM against Carbonic anhydrase 2; 44.5 µM at Carbonic anhydrase 9.

On to `O=C(/C=C/c1cn(S(=O)(=O)c2cccc([N+](=O)[O-])c2)c2ccccc12)c1ccncc1`, for which the IC50 was 42.6 µM in the assay with HepG2, more than 150 µM in the assay on HEK293, 36.3 µM in the assay on MCF7 [1] (setting [6]) and 37.6 µM against Carbonic anhydrase 9.

For the compound `O=C(/C=C/c1cn(S(=O)(=O)c2ccccc2[N+](=O)[O-])c2ccccc12)c1ccncc1`, the IC50 is 31.7 µM with HepG2, more than 150 µM in the assay with HEK293, 36.9 µM in the assay on MCF7 [1] (setting [6]) and 57.3 µM against Carbonic anhydrase 9.

`O=C(/C=C/c1cn(S(=O)(=O)c2cccc3ccccc23)c2ccccc12)c1ccncc1`: the IC50 was 62.9 µM in the assay on HepG2, more than 150 µM in the assay on HEK293, 58 µM with MCF7 [1] (setting [6]) and 44.1 µM against Carbonic anhydrase 9.

For `O=C(/C=C/c1cn(S(=O)(=O)c2ccc(Cl)cc2)c2ccccc12)c1ccncc1`, the IC50 in the assay on HepG2 was 35.1 µM; with HEK293 it was more than 150 µM; in the assay on MCF7 [1] (setting [6]) it was 37.5 µM; against Carbonic anhydrase 9, 14.4 µM.

Consider `O=C(/C=C/c1cn(S(=O)(=O)c2ccc([N+](=O)[O-])cc2)c2ccccc12)c1ccncc1`, for which the 50% inhibitory concentration (IC50) at Carbonic anhydrase 9 came to 0.15 µM.

As to `CC(C)(C)c1ccc(S(=O)(=O)n2cc(/C=C/C(=O)c3ccncc3)c3ccccc32)cc1`, the Activity with MCF7 [2] was 3.24%; in the assay with MCF7 [3], 19.6%; in the assay on MCF7 [4] it was 18.9%; with MCF7 [5] it was 58.26%. The IC50 in the assay on HepG2 is 27 µM; in the assay with HEK293, more than 150 µM; with MCF7 [1] (setting [6]), 24 µM; with MCF7 [1] (mcf7), “Dose-dependent effect”; at Carbonic anhydrase 9, 0.15 µM.

For the compound `COc1ccc(S(=O)(=O)n2cc(/C=C/C(=O)c3ccncc3)c3ccccc32)cc1`, the IC50 was 26 µM in the assay on HepG2, more than 150 µM with HEK293, 65.8 µM with MCF7 [1] (setting [6]) and 26.1 µM on Carbonic anhydrase 9.

Turning to `COc1cccc2c1C(=O)c1c(O)c3c(c(O)c1C2=O)C[C@@](O)(C(=O)CO)C[C@@H]3O[C@H]1C[C@H](N)[C@H](O)[C@H](C)O1` [DOXORUBICIN], the IC50 in the assay on HepG2 came to 18.7 µM; with HEK293, 143 µM.

One may read the IC50 as the point on the concentration scale where inhibition reaches its midpoint.
